The results in this text go back to BindingDB's records for doi:10.3109/14756366.2010.487485 (Huazhong University of Science and Technology, 2011).

Test [1] has as its target Matrix metalloproteinase-9 (Homo sapiens, UniProt P14780). Description: MMP-9 Assay. Conditions: pH 7.5; 37 °C. The method, then:
The MMP-9 assay was performed in 50 mM Tris-HCl buffer (pH 7.5, 10mM CaCl2, 150mM NaCl, 0.05% Brij-35). […] After incubation for 25 min at 37°C, the reaction was stopped with 25 μL of 1% TFA. An aliquot of 25 μL internal standard solution was then added and the solution mixture was analysed by HPLC. […] After incubation for 30 min at 37°C, 2 μL of 3 nM MMP-9 substrate was added.

Test [2] addresses Disintegrin and metalloproteinase domain-containing protein 17 (Homo sapiens, UniProt P78536). Put plainly: TACE Assay. The following applies: pH 9; 37 °C. The method, then:
Then, 15ng TACE was added to buffer solution containing 140μMTACE peptide substrate at a final volume of 50 μL. After incubation for 15 min at 37°C, the reaction was stopped with 25 μL of 1% TFA. An aliquot of 25μL of internal standard solution was then added and the solution mixture was analysed by HPLC.

Sequence of Disintegrin and metalloproteinase domain-containing protein 17 (P78536 whole entry, the tested form may be a part): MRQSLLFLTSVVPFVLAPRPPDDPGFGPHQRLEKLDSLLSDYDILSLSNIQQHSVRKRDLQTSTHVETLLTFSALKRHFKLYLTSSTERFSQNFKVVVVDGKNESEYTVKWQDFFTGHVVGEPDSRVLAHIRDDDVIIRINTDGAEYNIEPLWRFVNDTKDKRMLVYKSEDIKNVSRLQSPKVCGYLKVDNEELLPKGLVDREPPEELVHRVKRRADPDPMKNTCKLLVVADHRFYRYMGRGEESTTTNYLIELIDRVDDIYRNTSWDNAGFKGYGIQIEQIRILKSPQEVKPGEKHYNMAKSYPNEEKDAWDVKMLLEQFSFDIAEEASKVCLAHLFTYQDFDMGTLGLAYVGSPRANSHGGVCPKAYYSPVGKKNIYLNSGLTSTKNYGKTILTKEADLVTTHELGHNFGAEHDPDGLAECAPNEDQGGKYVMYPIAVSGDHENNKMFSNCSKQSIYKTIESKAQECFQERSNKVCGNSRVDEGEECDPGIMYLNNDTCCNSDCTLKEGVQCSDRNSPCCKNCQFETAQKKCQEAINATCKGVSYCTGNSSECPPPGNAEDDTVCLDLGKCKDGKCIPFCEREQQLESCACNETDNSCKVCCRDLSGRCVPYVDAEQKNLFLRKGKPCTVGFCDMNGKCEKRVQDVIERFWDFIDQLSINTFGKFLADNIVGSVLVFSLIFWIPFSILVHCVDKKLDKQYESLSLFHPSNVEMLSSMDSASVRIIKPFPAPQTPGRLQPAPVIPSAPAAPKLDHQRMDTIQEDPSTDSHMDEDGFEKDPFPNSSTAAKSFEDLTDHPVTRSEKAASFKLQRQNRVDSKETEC
Sequence of Matrix metalloproteinase-9 (P14780 whole entry): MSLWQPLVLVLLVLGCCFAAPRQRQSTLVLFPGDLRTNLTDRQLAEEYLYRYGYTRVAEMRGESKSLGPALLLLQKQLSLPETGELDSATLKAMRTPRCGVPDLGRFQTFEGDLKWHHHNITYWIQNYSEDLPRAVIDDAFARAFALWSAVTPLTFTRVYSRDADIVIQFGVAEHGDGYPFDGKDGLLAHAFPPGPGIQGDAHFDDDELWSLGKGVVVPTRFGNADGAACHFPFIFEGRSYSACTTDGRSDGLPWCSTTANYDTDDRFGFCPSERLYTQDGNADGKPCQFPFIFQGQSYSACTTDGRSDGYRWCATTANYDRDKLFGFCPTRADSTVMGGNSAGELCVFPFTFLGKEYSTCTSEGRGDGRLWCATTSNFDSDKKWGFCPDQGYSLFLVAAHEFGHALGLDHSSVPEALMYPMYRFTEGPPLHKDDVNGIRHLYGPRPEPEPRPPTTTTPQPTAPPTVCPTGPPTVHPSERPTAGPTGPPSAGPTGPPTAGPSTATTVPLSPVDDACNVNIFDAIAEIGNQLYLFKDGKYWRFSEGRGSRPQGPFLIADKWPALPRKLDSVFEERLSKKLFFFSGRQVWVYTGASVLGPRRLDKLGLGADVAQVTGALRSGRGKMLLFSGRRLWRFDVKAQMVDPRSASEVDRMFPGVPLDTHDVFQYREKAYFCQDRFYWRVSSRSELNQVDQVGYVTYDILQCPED

Take `O=C(Cc1cc2ccccc2oc1=O)NO` [Inhibitor A]: the IC50 in test [1] was 537 nM; in test [2] it was 175 nM.
Molecule `CNC(=O)[C@H](Cc1c[nH]c2ccccc12)NC(=O)[C@@H](CC(=O)NO)CC(C)C` [GM6001] had an IC50 in test [2] of 317 nM.

In general, IC50 refers to the concentration needed to halve the response being measured. A higher IC50 goes with a need for much substance.
